Assay results: PubChem BioAssay AID1996
≈ marks a conversion by molar mass, not a printed value.

Details: buffer; pH 7.4; 200.0 µM

SMILES | solubility kinetic [µg/mL]
CCCn1ccc(O)c(Cc2ccc(Cl)cc2)c1=O | 7.3 (≈ 26.3 µM)
O=C(NC(=S)NCc1ccccc1)c1cccc(Cl)c1 | < 0.3
Cc1ccc(S(=O)(=O)N2CCN(C(=O)COC(=O)/C=C/c3ccc([N+](=O)[O-])cc3)CC2)c(C)c1 | 1.9 (≈ 3.9 µM)
CCOC(=O)Cn1cc(C(=O)C(=O)N2CCOCC2)c2ccccc21 | > 51.7
CC(C)OCCCNC(=O)CN1C(=O)c2cccc3cccc1c23 | > 49
CN(C)[C@@H]1C(=O)C(C(N)=O)=C(O)[C@@]2(O)C(=O)C3=C(O)c4c(O)cccc4[C@@](C)(O)C3[C@H](O)C12.Cl (some centres undefined) | 70.2
Cc1ccc(S(=O)(=O)N(C)c2ccc(OC(=O)COc3ccccc3)cc2)cc1 | 18.7 (≈ 45.4 µM)
Cl.O=C(CSC1=NCCN1)Nc1cccc([N+](=O)[O-])c1 | > 47.5
COC(=O)c1ccc(N2CCN(C)CC2)c(NC(=O)c2cccs2)c1 | > 53.9
Cl.Nc1ncnc2nc[nH]c12 | > 25.7
CN(CC(O)CN1CCOCC1)S(=O)(=O)[O-].[Na+] (centres undefined) | > 41.4
COC(=O)c1ccc(NC(=O)c2ccc(OC(C)=O)c(OC)c2)cc1 | 3.1 (≈ 9.03 µM)
CC(Sc1nncn1C)C(=O)Nc1ccc2ccccc2c1 (centres undefined) | > 46.9
Cn1cc(CCC(=O)NC2CC2)c2ccccc21 | > 36.3
CC(C)Oc1ccc(Cn2c(=O)oc3ccccc32)cc1 | 0.7 (≈ 2.47 µM)
O=C(CSc1ccccc1)NC1=NCCS1 | 32.4 (≈ 128 µM)
CCCNC(=O)NC(=O)c1cnccc1C(F)(F)F | 34.8 (≈ 126 µM)
O=C(Nc1cc(S(=O)(=O)N2CCOCC2)ccc1O)c1ccc(S(=O)(=O)N2CCCCC2)cc1 | 4.8 (≈ 9.42 µM)
CCCOc1ccc(-c2cn3ccccc3n2)cc1 | 2.3 (≈ 9.12 µM)
CCCNC(=O)CSc1nccn1Cc1ccco1 | > 41.9
CCOC(=O)c1sc(=S)n(-c2ccccc2Cl)c1C | 2.7 (≈ 8.6 µM)
COCCCNC(=O)C1CC(=O)N(CCc2ccc(F)cc2)C1 (centres undefined) | > 48.4
CCOc1ccc(N2CC(C(=O)N3CCCCCC3)CC2=O)cc1 (centres undefined) | > 49.6
Br.COc1ccccc1N1CCN(CCCCN2C(=O)c3ccccc3C2=O)CC1 | > 71.2

SMILES | solubility kinetic [µg/mL]
Cc1ccc(NC2c3ccccc3C(=O)N2c2cccnc2)cc1 (centres undefined) | 40.5 (≈ 128 µM)
Cc1cccc(/N=C/c2sc3ccccc3c2O)n1 | 1.1 (≈ 4.1 µM)
COc1ccc(Cl)cc1C(=O)N1CCN(Cc2ccc3c(c2)OCO3)CC1 | 47.4 (≈ 122 µM)
Cn1cccc1C1CCCN1CC(=O)Nc1c(Cl)cc(Cl)cc1Cl (centres undefined) | 32.5 (≈ 84 µM)
O=C1CN(C(=O)COC(=O)CCC(=O)c2ccc(F)cc2)c2ccccc2N1 | 31.6 (≈ 82.2 µM)
CCc1ccccc1NC(=O)N1CCCc2ccccc21 | 22.8 (≈ 81.3 µM)
CCOCCN(C(=O)c1ccccc1Cl)c1cccc(C)c1C | > 49.8
CCOC(=O)Cc1csc(NC(=O)Nc2ccc(Cl)cc2)n1 | 1.3 (≈ 3.83 µM)
Cc1ccc(S(=O)(=O)N2CCN3CCCC3C2)cc1 (centres undefined) | > 42.1
O=[N+]([O-])c1cccc(S(=O)(=O)c2cccc([N+](=O)[O-])c2)c1 | 0.4 (≈ 1.3 µM)
Cc1cc(N2CC(C)OC(C)C2)nc(C(C)C)n1 (centres undefined) | 21.9 (≈ 87.8 µM)
CC(NCC#Cc1ccccc1)C(O)c1ccccc1.Cl (centres undefined) | 44.8
O=C(CCNC(=O)c1ccccc1)Nc1ccc(Cl)c(S(=O)(=O)N2CCCCC2)c1 | 29.8 (≈ 66.2 µM)
COC(=O)c1ccc(CO/N=C/c2ccccc2OC)cc1 | 2.6 (≈ 8.69 µM)
CCOC(=O)N1CCN(Cc2nc(-c3cccs3)no2)CC1 | 44 (≈ 136 µM)
O=C(O)/C=C\C(=O)Nc1ccc(OC(F)F)cc1 | 35.5 (≈ 138 µM)
COc1ccc(CC(=O)OCC(=O)NC2CCCC(C)C2C)cc1 (centres undefined) | > 50
CCCc1cc(=O)[nH]c(SCC(=O)N2CCCC2=O)n1 | > 44.3
O=C1CCc2ccccc2N1 | 15.9 (≈ 108 µM)
O=S(=O)(NC1=NCCC1)c1cccc(NC(=S)Nc2ccc(OC(F)F)cc2)c1 | > 66.1
Cc1[nH]c2ccc(C(=O)NCCCN3CCCCC3)cc2c1C | > 47
Cc1cc2ccc3ccccc3c2cc1CN(C)C.Cl | 24.5
COC(=O)Cn1c(Cc2ccccc2)nc2ccccc21 | > 42
COc1cccc(CNc2ccc(C(=O)O)cc2)c1OCc1ccccc1 | > 54.5

SMILES | solubility kinetic [µg/mL]
CC(C)Nc1nc(N)c(C(=O)C23CC4CC(CC(C4)C2)C3)s1 | 0.3 (≈ 0.939 µM)
Cc1nc(C)c(C(=O)O)s1 | > 23.6
Cc1ccc2c(c1)CCCN2C(=O)c1cc(C)on1 | > 38.4
CCOc1cc(CN2CCCCCC2)ccc1OC | 27.4 (≈ 104 µM)
Cc1ccc(NC(=S)N2CCCCCC2)c(C)c1 | > 39.4
CCOc1ccc(S(=O)(=O)NCC2CCCO2)c2ccccc12 (centres undefined) | 42.2 (≈ 126 µM)
CCOC(=O)C1CCN(c2ncnc3cc(OC)c(OC)cc23)CC1 | 51.3 (≈ 149 µM)
CN(C)c1cc[n+](CC(=O)Nc2ccc(OC(F)F)cc2)cc1.[Cl-] | > 53.7
CC(C)OC(=O)c1ccc2nc3ccccc3nc2c1 | 1 (≈ 3.76 µM)
COC(=O)c1cc(S(=O)(=O)N2CCCCC2C)c[nH]1 (centres undefined) | > 43
COc1ccc(S(=O)(=O)N2CCN(c3cnccn3)CC2)cc1 | > 50.2
Cn1c(SCC(=O)NC2CCCC2)nnc1C(F)(F)F | > 46.2
CC(C)NC(=O)COc1ccc(S(=O)(=O)N2CCCC2)cc1 | > 49
Cc1onc(-c2ccccc2)c1C(=O)NCCSCc1ccco1 | > 51.4
C/C(=N\NC(=O)c1cc(C)nc2ccccc12)c1ccco1 | > 44
O=C(O)C1c2ccccc2C(=O)N(Cc2ccc(F)cc2)C1c1ccncc1 (centres undefined) | > 56.5
CN(CC(=O)NCc1ccccn1)S(=O)(=O)c1ccc(F)cc1 | > 50.6
Nc1nc2ccccc2cc1-c1cccs1 | 27.7 (≈ 122 µM)
COCc1cccc(C(=O)NC(c2ccccc2)c2ccccc2)c1 | 3.1 (≈ 9.35 µM)
CC(=NCc1ccco1)c1c(O)n(-c2ccc(C)cc2)c(=O)[nH]c1=O | 12.5 (≈ 36.8 µM)
Cc1c(N(C)CS(=O)(=O)O)c(=O)n(-c2ccccc2)n1C.[Na] | > 50.2
O=C(O)C1CC1C(=O)Nc1nc2c(Cl)cccc2s1 (centres undefined) | > 44.5
Cc1cnc(C(=O)N2CCN(S(=O)(=O)c3cccc(Br)c3)CC2)cn1 | > 63.8
Oc1c(Cl)cc(Cl)cc1C=Nc1ccc(N2CCOCC2)cc1 | 8.1 (≈ 23.1 µM)

SMILES | solubility kinetic [µg/mL]
Cc1ccccc1C(=O)NC(=S)NC1CC1 | 16.3 (≈ 69.6 µM)
O=CN1CCN(C(=S)Nc2ccc(OC(F)F)cc2)CC1 | > 47.3
CC1CCCC(NC(=O)CCn2c(=S)oc3ccccc32)C1C (centres undefined) | 2 (≈ 6.02 µM)
Cc1ccnc(SCC(=O)N2CCCc3ccccc32)n1 | > 44.9
COC(=O)C1=C(N)OC2=C(C(=O)CC(C)(C)C2)C1c1ccccc1OC (centres undefined) | > 53.6
CC(=O)c1cn(N2CCCCC2)c(=O)[nH]c1=O | > 35.6
COc1ccc(CNc2nc3ccccc3s2)cc1OC | 1.4 (≈ 4.66 µM)
Cc1ccccc1N1C(=O)CC(c2c[nH]c3ccccc23)C1=O (centres undefined) | > 45.7
CCOC(=O)c1cccc(NC(=O)N2CCOCC2)c1 | > 41.7
O=C1c2oc3ccccc3c(=O)c2C(c2ccc(O)cc2)N1c1nccs1 (centres undefined) | 0.8 (≈ 2.13 µM)
CN=C(c1ccc([N+](=O)[O-])cc1)N1CCCCC1 | > 37.1
O=CNCc1nc2ccccc2n1CCCc1ccccc1 | > 44
COc1ccc2c([N+](=O)[O-])c(Cl)[nH]c2c1 | 32.3 (≈ 143 µM)
Nc1nc(Nc2ccccc2)nc(NC2CCCCC2)c1[N+](=O)[O-] | < 0.1
Cc1ccc(C(=O)NC(=S)NCC2CCCO2)cc1[N+](=O)[O-] (centres undefined) | > 48.5
C/C(=N\O)c1ccc(Cl)c(Cl)c1 | 11.9 (≈ 58.3 µM)
CN(C)S(=O)(=O)c1cccc(C(=O)OCC(=O)N2CCCC2=O)c1 | > 53.2
Nc1nc2ccccc2cc1S(=O)(=O)c1ccccc1 | 1.1 (≈ 3.87 µM)
COC(=O)Cn1c(=O)c(C)nc2ccccc21 | > 34.8
O=C(COc1ccc2ccc(=O)oc2c1)NCc1ccccn1 | > 46.5
Cc1ccc2c(c1)sc1ncc(NC(=O)c3ccc(F)cc3)c(=O)n12 | < 0.3
CN(Cc1ccccc1)C(=O)c1ccc(COc2ccccc2)cc1 | 4.5 (≈ 13.6 µM)
Cn1c(=O)oc2cc(NC(=O)CCl)ccc21 | 24.2 (≈ 101 µM)
Cc1cc(C(=O)Nc2ccc(F)cc2F)on1 | > 35.7

SMILES | solubility kinetic [µg/mL]
O=C(CCc1c[nH]c2ccccc12)NCCc1ccc(Cl)cc1 | 4.2 (≈ 12.9 µM)
Cc1cc(-c2ccccc2)nc(-c2ccccc2)c1C | < 0.6
COc1ccc(S(=O)(=O)N2c3ccc(F)cc3CCC2C)cc1 (centres undefined) | 3.2 (≈ 9.54 µM)
O=C(CCc1c[nH]c2ccccc12)NCc1cccc(Cl)c1 | 40.3 (≈ 129 µM)
CC(=O)c1c[nH]c(C(=O)NCc2cccc(C(F)(F)F)c2)c1 | 2.2 (≈ 7.09 µM)
Cc1ccc(C(=O)NCCNC(=O)c2ccc(F)cc2)cn1 | > 45.2
CCn1c(/C=C/c2ccccc2F)nc2ccccc2c1=O | 2.2 (≈ 7.47 µM)
Cc1ccc(NC(=O)Cn2cc(C(=O)C3CC3)c3ccccc32)c(C)c1 | < 0.4
Cc1cc(C(=O)Nc2ccc(OCc3ccccc3)cc2)c(C)o1 | < 0.7
CN(C(=O)/C=C/c1ccc(F)cc1)C1CCCCC1 | > 39.2
CCn1c(SCC(=O)NC2CCCC2)nnc1-c1cccnc1 | > 49.7
O=C1CN(CC(=O)NC2CCCc3ccccc32)CCN1 (centres undefined) | > 43.1
COc1cccc(C(=O)O/N=C(\N)c2ccccn2)c1 | > 40.7
CSc1nc(-c2ccccc2)c(C#N)c(=O)[nH]1 | > 36.5
CCCc1ccc(OCCNC(=O)c2ccco2)cc1 | > 41
COc1ccccc1N1C(=O)C(=O)N(C)C1=O | > 35.1
CC1CCCN(C(=O)CNS(=O)(=O)c2cccs2)C1 (centres undefined) | > 45.4
COCCCNC(=O)Cc1ccc(-n2c(C)nc3cccnc32)cc1 | > 50.8
Cc1ccc(C(=O)OCC(=O)NC(C)c2ccccc2)cc1C (centres undefined) | 1.1 (≈ 3.53 µM)
COc1ccc(CNC(=O)COC(=O)c2ccc(F)c(S(=O)(=O)N3CCOCC3)c2)cc1 | 68 (≈ 146 µM)
Cn1cccc1/C=C1/SC(=O)N(CC(=O)N2CCCC2)C1=O | 15.2 (≈ 47.6 µM)
O=C(CSCc1ccc(Br)cc1)NCc1ccccn1 | > 52.7
O=C(Cn1c(=O)oc2ccc(Cl)cc21)Nc1ccon1 | 6.2 (≈ 21.1 µM)
